# Experimental data taken from patent publication US20250346866A1, “CELL AGGREGATE DISSOCIATING AGENT” (AJINOMOTO CO., INC., priority 2023, published 2025).
# Key:
# Format in all cases: cell-based
# [1] = test system: human iPS cells (1383D2 strain), CD30 expression; assay: Undifferentiated marker (CD30) positive rate by flow cytometry; settings: FIG. 7
# Description: The undifferentiated rate was evaluated for cells 4 days after suspension culture seeding, according to the following procedure.
# 1×10^5 cells were quantitatively collected, centrifuged (400 g, 5 min), and the supernatant was removed. 20 μL of PE Mouse Anti-Human CD30 (BD Pharmingen™) or PE Mouse IgG1, κ Isotype Control (BD Pharmingen™) diluted 5-fold with buffer was added and the cells were left standing for 20 min at 4° C. in the dark. After washing several times with buffer, the cells were analyzed using an Attune NXT Flow Cytometer (Thermo Fisher Scientific). […] However, measurement was not performed under conditions without a step of removing EDTA by centrifugation, because cells were not obtained.
# [2] = test system: human iPS cells (1383D2 strain) cell aggregates; assay: Dissociation of human iPS cell aggregates by stirring with dissociation agent (micrographs, Vi-CELL viable cell density); settings: culture medium with 10 μM Y-27632; WK11 stirred 17 min, EDTA 2.5 mM stirred 14 min; FIG. 2, FIG. 3
# Description: The iPS cells maintenance cultured in (2) were seeded at a concentration of 1.5×10^5 cells/mL in a multi-well plate with StemFit (registered trademark) AK03N (Ajinomoto Co., Inc.) containing 10 μM Y-27632 added thereto, and cultured with stirring at a rotation speed of 70 rpm using an orbital shaker MaxQ™ 2000 CO2 Plus (Thermo Fisher Scientific) placed in a CO2 incubator at 37° C. One and three days after seeding, 50 vol % each of the medium was exchanged with AK02N, and the culture was continued until four days later to obtain cell aggregates.
# To a culture medium containing the cell aggregates prepared in (3) were added Y-27632 (final concentration 10 μM) and WK11 pre-treated in (1), and the mixture was stirred for 17 min using an orbital shaker. Thereafter, the cell aggregates were sufficiently brought to a single-cell state by pipetting, and the viable cell density was measured using a live/dead cell autoanalyzer Vi-CELL XR (BECKMAN COULTER). […]
# To a culture medium containing the cell aggregates prepared in (3) were added Y-27632 (final concentration 10 μM) and EDTA (final concentration 2.5 mM), and the mixture was stirred for 14 min using an orbital shaker. […] The viable cell density of the obtained cell suspension was measured using Vi-CELL XR.
# The viable cell density in the culture medium was calculated from the Vi-CELL measured values in Example 1 (4), (5), and (6). […]
# [3] = test system: human iPS cells (1383D2 strain); assay: Suspension culture after passage: proliferation, viable cell density and aggregate formation; settings: for proliferation in 4 days after passage (viable cell density): seeded 1.5×10^5 cells/mL, 4 days suspension culture, FIG. 6
# Description: A new multi-well plate containing AK02N containing 10 μM Y-27632 was prepared, and the cells obtained in (4), (5), and (6) were respectively seeded at a density of 1.5×10^5 cells/mL. The cells were cultured in a CO2 incubator while stirring with an orbital shaker. One and three days after seeding, 50 vol % each of the medium was exchanged with AK02N, and the suspension culture was continued until four days later.
# To accurately measure the number of viable cells, after four days of culture, under the same conditions, the following operation, including centrifugation, was performed. The entire volume of each culture medium was collected in a 15-mL conical tube, and the supernatant was removed by centrifugation (200 G, 5 min, 25° C.). Accutase™ (Nacalai Tesque Inc., 12679-54) (0.5 mL) was added and the mixture was heated at 37° C. for 15 min, after which the cell aggregates were sufficiently brought to a single-cell state by pipetting. The cells attached to the wall of the conical tube were sufficiently washed with AK02N, and the supernatant was removed by centrifugation (200 G, 5 min, 25° C.). The cells were resuspended in AK02N containing 10 μM Y-27632, and the viable cell density was measured using Vi-CELL XR.
# The viable cell density in the culture medium was calculated from the Vi-CELL measured values in Example 1 (4), (5), and (6). A great difference in the viable cell density was not observed depending on the passage method. The viable cell density in the culture medium was calculated from the Vi-CELL measured values in Example 1 (7). The cells passaged using WK11 proliferated 3.4-fold in 4 days, whereas the cells passaged using EDTA without centrifugation removal proliferated 0.03-fold. Even when the centrifugation step was performed, the value was as low as 0.4-fold.
smiles,measurement,setting,value
"O=C(O)CN(CCN(CC(=O)O)CC(=O)O)CC(=O)O [EDTA, ethylenediaminetetraacetic acid]",undifferentiated marker (CD30) positive rate,"[1]; Passage 1, 4 days after suspension culture seeding",maintained high values
same,undifferentiated marker (CD30) positive rate,"[1]; Passage 2, 4 days after suspension culture seeding, EDTA only with centrifugation removal",maintained even after culture
same,state of cell aggregates after stirring (micrograph),[2],fragmented and the intercellular binding was weakened
same,proliferation in 4 days after passage (viable cell density),[3]; centrifugation step performed to remove the agent,0.4 fold
same,proliferation in 4 days after passage (viable cell density),[3]; no centrifugation removal of the dissociation agent,0.03 fold
same,proliferation of passaged cells (micrograph),"[3]; suspension cultured 4 days after passage, FIG. 4",proliferated hardly
same,aggregate formation of passaged cells (micrograph),"[3]; suspension cultured 4 days after passage, without a step of removing EDTA by centrifugation, FIG. 4",no aggregates were formed
